Entries after “also recorded” stand apart in the source; their conditions may differ. Read-outs that look alike come from different tables or passages of the source.
Legend:
Gal2 permease = target: T1, Gal2 permease (Saccharomyces cerevisiae, UniProt P13181, G90S/H392R/M8V/S50P); format: cell-based, S. cerevisiae; settings: for Competition with L-arabinose transport by Gal2 permease: competing sugars
T1 construct: expressed in transfected cells; host or cells: S. cerevisiae BFY597 (gal2Δ::HIS3, plasmids p138 and p42)
Experimental: (§1) Cells are collected in mid-growth and washed twice before suspension in water at 30 mg/ml. Uptake of L-(1-^14C)arabinose (54 mCi/mmol, Moravek Biochemicals Inc.) or D-(1-^14C) galactose (57 mCi/mmol, Amersham Biosciences) is measured as previously described by Stambuk et al. (2003). Assays are performed in 30 seconds to maintain initial rates after appropriate experiments to ensure uptake is linear for at least 1 minute. […] Inhibition and competition assays are performed as previously described by Stambuk et al, (2003).
(§2) The transport characteristics of the KmLat1 and the Gal2 transporters expressed in S. cerevisiae were compared.

KmLat1 transporter [1] = target: KmLat1 transporter (Kluyveromyces marxianus, UniProt A0ABX6EN84); experiment: L-arabinose transport by KmLat1 expressed in S. cerevisiae, 14C-sugar uptake; format: cell-based; settings: for Inhibition of L-arabinose transport by KmLat1: protonophores and H+-ATPase inhibitors; for Competition with L-arabinose transport by KmLat1: competing sugars
Experimental: as §1, §2

P. guilliermondii Y-2075 = experiment: Sugar transport in wild type P. guilliermondii Y-2075 grown on L-arabinose; format: cell-based, Pichia guilliermondii
Experimental: (§3) Cells were collected in mid-growth and washed twice in water before suspension in water at about 30 mg/ml. […] Assays were performed in 5, 10, or 30 second periods to maintain initial rates. Appropriate experiments ensured uptake was linear for at least 1 minute. Transport activity was described as nmoles of labeled sugar transported per mg cell dry weight per minute.

PgLAT2 transporter = PgLAT2 transporter (Meyerozyma guilliermondii, UniProt A5DRF8); experiment: L-arabinose transport by PgLAT2 transporter expressed in S. cerevisiae BFY605; settings: for Inhibition of L-arabinose transport by PgLAT2: protonophores and H+-ATPase inhibitors; for Competition with L-arabinose uptake by PgLAT2: competing sugars
Experimental: as §3

KmLat1 transporter [2] = experiment: L-arabinose transport by KmLat1 expressed in S. cerevisiae, 14C-sugar uptake; format: cell-based, Kluyveromyces marxianus
Experimental: as §1, §2

[3] = inhibitor NaN3 10 mM, others 5 mM, […] labeled L-arabinose, no inhibitor = 100
[4] = inhibitor NaN3 10 mM, others 5 mM, 0.33 mM labeled L-arabinose, none = 100
[5] = competing sugar 900 mM, 30 mM labeled L-arabinose, no sugar = 100

KmLat1 transporter (Kluyveromyces marxianus, UniProt A0ABX6EN84), sequence (A0ABX6EN84 entry or part of it): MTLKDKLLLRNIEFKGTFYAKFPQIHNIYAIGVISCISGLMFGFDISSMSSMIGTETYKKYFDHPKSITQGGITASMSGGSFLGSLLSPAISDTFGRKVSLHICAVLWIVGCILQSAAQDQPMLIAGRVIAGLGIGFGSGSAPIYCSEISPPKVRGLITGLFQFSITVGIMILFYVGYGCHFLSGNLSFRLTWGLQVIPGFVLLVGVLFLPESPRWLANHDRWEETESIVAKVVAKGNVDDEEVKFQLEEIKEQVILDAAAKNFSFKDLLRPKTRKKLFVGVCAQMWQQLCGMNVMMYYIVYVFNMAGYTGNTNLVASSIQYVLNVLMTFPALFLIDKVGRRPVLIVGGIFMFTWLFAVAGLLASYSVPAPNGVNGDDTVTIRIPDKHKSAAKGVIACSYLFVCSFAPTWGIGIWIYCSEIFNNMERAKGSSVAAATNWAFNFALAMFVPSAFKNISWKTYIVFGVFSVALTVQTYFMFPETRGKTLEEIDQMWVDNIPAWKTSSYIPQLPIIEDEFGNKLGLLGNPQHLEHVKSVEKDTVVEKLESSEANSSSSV
T1 sequence (P13181 whole entry M8V/S50P/G90S/H392R): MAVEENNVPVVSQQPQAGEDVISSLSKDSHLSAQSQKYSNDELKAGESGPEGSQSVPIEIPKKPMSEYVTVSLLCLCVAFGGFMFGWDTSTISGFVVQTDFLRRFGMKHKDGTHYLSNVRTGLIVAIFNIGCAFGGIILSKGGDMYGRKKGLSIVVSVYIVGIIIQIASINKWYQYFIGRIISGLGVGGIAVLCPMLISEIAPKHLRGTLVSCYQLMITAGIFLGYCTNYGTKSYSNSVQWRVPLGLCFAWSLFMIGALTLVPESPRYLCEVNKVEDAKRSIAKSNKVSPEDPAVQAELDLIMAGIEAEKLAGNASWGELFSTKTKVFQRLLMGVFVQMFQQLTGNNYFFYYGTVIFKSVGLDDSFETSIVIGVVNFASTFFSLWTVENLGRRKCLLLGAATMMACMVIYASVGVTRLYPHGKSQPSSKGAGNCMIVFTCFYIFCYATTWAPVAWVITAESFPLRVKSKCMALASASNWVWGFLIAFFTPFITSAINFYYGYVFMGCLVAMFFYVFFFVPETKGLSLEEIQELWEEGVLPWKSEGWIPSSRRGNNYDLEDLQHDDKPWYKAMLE

SMILES | Relative L-arabinose transport (%) Gal2 (Gal2 permease; [3]) | Relative L-arabinose transport (%) KmLat1 (KmLat1 transporter [1]; [3]) | Inhibition of L-arabinose transport by KmLat1 (KmLat1 transporter [1]) | Relative L-arabinose transport P. guilliermondii (P. guilliermondii Y-2075; [4]) | Relative L-arabinose transport S. cerevisiae (PgLAT2 transporter) (PgLAT2 transporter; [4]) | Inhibition of L-arabinose transport by PgLAT2 (PgLAT2 transporter) | Competition with L-arabinose uptake by PgLAT2 (PgLAT2 transporter) | Relative L-arabinose transport (%) KmLat1 (KmLat1 transporter [1]) | Relative L-arabinose transport S. cerevisiae (PgLAT2 transporter) (PgLAT2 transporter) | other results
O=[N+]([O-])c1ccc(O)c([N+](=O)[O-])c1 [DNP] | 72% | 75% | not significantly inhibited | 0 | 4 | significant inhibition | – | – | – | –
O=C[C@H](O)[C@@H](O)[C@@H](O)[C@H](O)CO [Galactose] | – | – | – | – | – | – | inhibited | – | – | Vmax for galactose transport by Gal2p (Gal2 permease; BFY597): 76 nmol/mg/min; Relative L-arabinose transport (%) Gal2 (Gal2 permease; [5]): 3%; Competition with L-arabinose transport by Gal2 permease (Gal2 permease): significantly reduced; also recorded: out-competed; Km (Gal2 permease; read-out: Km for galactose transport by Gal2p, BFY597): 25 mM; Relative L-arabinose transport (%) KmLat1 (KmLat1 transporter [2]; competing sugar 900 mM (maltose 450 mM), 30 mM labeled L-arabinose, no sugar = 100): 23%; Competition with L-arabinose transport by KmLat1 (KmLat1 transporter [2]; competing sugars): out-competed
[N-]=[N+]=[N-].[Na+] [NaN3] | 66% | 11% | not significantly inhibited | 1 | 16 | significant inhibition | – | – | – | –
OC[C@H]1O[C@H](O[C@H]2[C@H](O)[C@@H](O)C(O)O[C@@H]2CO)[C@H](O)[C@@H](O)[C@@H]1O (mixture of isomers) [Maltose] | – | – | – | – | – | – | to a lesser extent | 38% | 30 | Competition with L-arabinose transport by KmLat1 (KmLat1 transporter [1]): out-competed
CC/C(=C(/CC)c1ccc(O)cc1)c1ccc(O)cc1 [DESB] | 81% | 100% | Neither is KmLat1 inhibited | 8 | 1 | significant inhibition | – | – | – | –
C(=NC1CCCCC1)=NC1CCCCC1 [DCCD] | 69% | – | Neither is KmLat1 inhibited | – | – | significant inhibition | – | 55% | 36 | Relative L-arabinose transport P. guilliermondii (P. guilliermondii Y-2075): 22
N#CC(C#N)=NNc1cccc(Cl)c1 [CCCP] | 46% | – | not significantly inhibited | 0 | – | significant inhibition | – | 61% | 2 | –
O=C[C@H](O)[C@@H](O)[C@H](O)CO [Xylose] | – | – | – | – | – | – | inhibited | 25% | 0 | Relative L-arabinose transport (%) Gal2 (Gal2 permease; [5]): 25%; Competition with L-arabinose transport by Gal2 permease (Gal2 permease): significantly reduced; Competition with L-arabinose transport by KmLat1 (KmLat1 transporter [1]): out-competed; Relative L-arabinose transport P. guilliermondii (P. guilliermondii Y-2075): 4; Reduction of uptake of labeled L-arabinose (P. guilliermondii Y-2075; 100× un-labeled competing sugar): 96%

Reference: patent US8841090B2 (priority 2006, dated 2014)
